{"source": "paper PMC3224403", "about": "(Indian Journal of Pharmaceutical Sciences, 2011)", "format_in_all_cases": "in vivo", "key": {"ulcers": {"test_system": "ulcers", "test": "Ulcerogenecity, arbitrary ulcer scoring system", "conditions": "dose 200 mg/Kg b.w. (5e, 5f: 150); p in parentheses"}, "[1]": {"test_system": "carrageenan-induced rat paw edema", "test": "Carrageenan-induced rat paw edema method"}, "[2]": {"test_system": "cotton pellet induced granulation tissue formation", "test": "Cotton pellet induced granulation tissue formation method", "conditions": "dose 200 mg/Kg b.w. (5e, 5f: 150)"}, "adrenal weight": {"test_system": "adrenal weight", "test": "Adrenal weight change method", "conditions": "suppression of adrenal weights; dose 200 mg/Kg b.w. (5e, 5f: 150)"}, "[3]": {"test_system": "radiant heat induced rat tail flick", "test": "Radiant heat induced rat tail flick method", "conditions": "dose 200 mg/Kg b.w. (5e, 5f: 150)"}, "[4]": {"test_system": "maximum electroshock seizure", "test": "Maximum electroshock seizure", "conditions": "dose 200 mg/Kg b.w. (5e, 5f: 150); Fischer's exact test"}}, "data": [{"smiles": "CC(=O)Oc1ccccc1C(=O)O", "note": "[aspirin]", "values": [{"measurement": "Ulcer index", "setting": "ulcers", "value": 43.33}, {"measurement": "Antiinflammatory activity Percentage Inhibition, Carrageenan method, 1 h", "setting": "[1]; 1 h, dose 200 mg/Kg b.w. (5e, 5f: 150)", "value": 54.84, "unit": "%"}, {"measurement": "Antiinflammatory activity Percentage Inhibition, Carrageenan method, 3 h", "setting": "[1]; 3 h, dose 200 mg/Kg b.w. (5e, 5f: 150)", "value": 55.05, "unit": "%"}, {"measurement": "Antiinflammatory activity, carrageenan-induced rat paw edema, after 6 h", "setting": "[1]; 6 h as printed in the text", "value": 73.81, "unit": "%"}, {"measurement": "Antiinflammatory activity Percentage Inhibition, Cotton pellet method", "setting": "[2]", "value": 41.88, "unit": "%"}, {"measurement": "Antiinflammatory activity Percentage Inhibition, Adrenal weight method", "setting": "adrenal weight", "value": 50.13, "unit": "%"}, {"measurement": "Analgesic activity percent protection, Rat tail flick method", "setting": "[3]", "value": 49.39, "unit": "%"}]}, {"smiles": "O=C1NC(=O)C(c2ccccc2)(c2ccccc2)N1", "note": "[phenytoin sodium]", "values": [{"measurement": "Anticonvulsant activity, MES protection", "setting": "[4]", "value": 100, "unit": "%"}]}]}
